Earlier results in patent US20100137246A1, “Anti-inflammatory compositions and methods” (Searete LLC, a limited liability corporation of the State …, priority 2008, published 2010).
Values belong to the molecule of their own block, whether it stands above or below them.

Assays:
[1] = tested on: Src family kinase
[2] = tested on: lethal septic shock in mice
[3] = single agent, infused at 400 mg over one hour
[4] = target: Fyn (Homo sapiens, UniProt P06241); settings: at nanomolar concentrations
[5] = tested on: proteasome; settings: cultured breast cancer cells; through binding copper

Chain of Fyn (P06241 whole entry, species assumed): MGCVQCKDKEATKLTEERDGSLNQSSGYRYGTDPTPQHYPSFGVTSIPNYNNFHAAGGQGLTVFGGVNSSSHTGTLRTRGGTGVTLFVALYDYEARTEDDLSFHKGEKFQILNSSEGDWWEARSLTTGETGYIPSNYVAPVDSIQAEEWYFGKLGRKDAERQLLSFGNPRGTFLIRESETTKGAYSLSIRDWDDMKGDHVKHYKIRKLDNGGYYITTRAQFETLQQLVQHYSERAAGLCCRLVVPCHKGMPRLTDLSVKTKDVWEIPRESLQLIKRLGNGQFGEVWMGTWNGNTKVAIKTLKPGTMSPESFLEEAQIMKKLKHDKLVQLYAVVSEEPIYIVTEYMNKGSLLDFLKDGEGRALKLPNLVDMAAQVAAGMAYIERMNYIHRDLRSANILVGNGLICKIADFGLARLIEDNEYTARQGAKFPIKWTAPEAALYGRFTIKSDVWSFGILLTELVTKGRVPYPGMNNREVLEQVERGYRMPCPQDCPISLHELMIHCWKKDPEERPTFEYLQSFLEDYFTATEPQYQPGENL

inhibition of CpG-induced Src family kinase activation, or its dependent cellular responses [1]: does not inhibit
Compound: CCN(CC)CCCC(C)Nc1ccnc2cc(Cl)ccc12 (centres unmarked) [Chloroquine]

Compound: Cl.Cl.Nc1ccccc1Oc1ccc2c(N)nsc2c1 [Example M62812, 3-amino-6-(2-aminophenoxy)-1,2-benzisothiazole dihydrochloride]
prevention of lethal septic shock [2]: prevents lethal septic shock

Compound: CCN(CC)CCCC(C)Nc1ccnc2cc(Cl)ccc12.O=P(O)(O)O.O=P(O)(O)O (centres unmarked) [chloroquine phosphate, 7-chloro-4-[[4-(diethylamino)-1-methylbutyl]amino]quinoline phosphate (1:2)]
tolerability of infusion [3]: without complication

Compound: Cc1nc(Nc2ncc(C(=O)Nc3c(C)cccc3Cl)s2)cc(N2CCN(CCO)CC2)n1.O [dasatinib, N-(2-chloro-6-methylphenyl)-2-[[6-[4-(2-hydroxyethyl)-1-piperazinyl]-2-methyl-4-pyrimidinyl]amino]-5-thiazolecarboxamide, monohydrate]
inhibition of Fyn [4]: inhibits

Compound: CCN(CC)C(=S)SSC(=S)N(CC)CC [disulfuram, 1-(diethylthiocarbamoyldisulfanyl)-N,N-diethyl-methanethioamide]
proteasomal activity [5]: inhibits proteasomal activity
